Patent US12258354B2, “AhR modulators” (IDEAYA BIOSCIENCES, INC., priority 2018, dated 2025)

The compounds below were run against T1, hAhR (Homo sapiens, UniProt P35869) (assay: DRE-luciferase transcriptional reporter assay in HEPG2 DRE-Luc cells, TCDD-induced (antagonist mode)). Details: relative IC50, 3 nM TCDD, 24-hour incubation, firefly luciferase readout.
T1 construct: Stably integrated DRE-luciferase cell lines were generated by transducing the both cell lines with Cignal XRE luciferase reporter; endogenous in cells; host or cells: HEPG2 DRE-Luc cells (only the XRE luciferase reporter was transduced)
T1 sequence (P35869 11-848): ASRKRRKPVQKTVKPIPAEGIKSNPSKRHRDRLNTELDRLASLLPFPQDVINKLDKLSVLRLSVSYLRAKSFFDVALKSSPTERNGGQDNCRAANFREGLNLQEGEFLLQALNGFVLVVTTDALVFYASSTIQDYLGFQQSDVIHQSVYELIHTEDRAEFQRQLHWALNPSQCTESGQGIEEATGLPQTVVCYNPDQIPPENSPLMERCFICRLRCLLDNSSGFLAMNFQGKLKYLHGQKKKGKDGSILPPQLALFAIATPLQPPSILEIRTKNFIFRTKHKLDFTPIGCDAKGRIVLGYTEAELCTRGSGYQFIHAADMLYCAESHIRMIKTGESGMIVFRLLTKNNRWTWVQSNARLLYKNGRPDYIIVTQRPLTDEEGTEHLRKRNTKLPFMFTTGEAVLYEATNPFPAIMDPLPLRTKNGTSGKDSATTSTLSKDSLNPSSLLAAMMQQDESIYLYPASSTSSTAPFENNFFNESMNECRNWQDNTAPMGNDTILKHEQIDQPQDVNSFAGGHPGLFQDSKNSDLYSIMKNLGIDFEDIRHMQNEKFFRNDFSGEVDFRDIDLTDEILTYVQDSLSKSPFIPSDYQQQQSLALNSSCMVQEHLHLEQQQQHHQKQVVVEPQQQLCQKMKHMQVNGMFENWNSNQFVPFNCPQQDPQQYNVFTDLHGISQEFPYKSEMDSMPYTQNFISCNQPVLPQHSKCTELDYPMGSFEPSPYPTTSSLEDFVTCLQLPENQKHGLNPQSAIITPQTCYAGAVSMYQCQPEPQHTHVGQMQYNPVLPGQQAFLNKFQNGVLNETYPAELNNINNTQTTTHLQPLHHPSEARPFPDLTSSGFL
Type: cell-based
Summary of the method: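 Stable DRE(XRE)-luciferase HEPG2 clone seeded in OptiMEM with 0.5% heat-inactivated FBS, then given a semi-log compound dilution plus TCDD at 3 nM final. After 24 h, cells were lysed and firefly luminescence read. Response was normalised between TCDD and vehicle, and relative IC50 was taken as half-reduction between the fitted curve plateaus.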

`Cc1cc(-c2ncc3cc(C(F)(F)F)ccc3n2)ccc1N1CCn2nc(CN3CCOCC3)c(C)c2C1=O` [compound 061, 3-methyl-5-(2-methyl-4-(6-(trifluoromethyl)quinazolin-2-yl)phenyl)-2-(morpholinomethyl)-6,7-dihydropyrazolo[1,5-a]pyrazin-4 (5H)-one] and `Cc1cc(-c2ncc3cc(C(F)(F)F)ccc3n2)ccc1N1CCn2nc(CN3CCO[C@H](C)C3)c(C)c2C1=O` [Example 95, (R)-3-methyl-5-(2-methyl-4-(6-(trifluoromethyl)quinazolin-2-yl)phenyl)-2-((2-methylmorpholino)methyl)-6,7-dihydropyrazolo[1,5-a]pyrazin-4 (5H)-one] cannot be ordered by IC50: less than 0.2 µM for the first, less than 0.2 µM for the second.

`Cc1cc(-c2ncc3cc(C(F)(F)F)ccc3n2)ccc1N1CCn2nc(CO)c(C)c2C1=O` [compound 057, 2-(hydroxymethyl)-3-methyl-5-(2-methyl-4-(6-(trifluoromethyl)-quinazolin-2-yl)phenyl)-6,7-dihydropyrazolo[1,5-a]pyrazin-4 (5H)-one] and `Cc1cc(-c2ncc3cc(C(F)(F)F)ccc3n2)ccc1N1CCn2nc(N)c(C)c2C1=O` [Example 113, 2-amino-3-methyl-5-(2-methyl-4-(6-(trifluoromethyl)quinazolin-2-yl)phenyl)-6,7-dihydropyrazolo[1,5-a]pyrazin-4 (5H)-one] cannot be ordered by IC50: less than 0.2 µM for the first, less than 0.2 µM for the second.

First: Cc1cc(N2CCn3ncc(C)c3C2=O)c(C)cc1-c1ncc2cc(C(F)(F)F)ccc2n1 [compound 003, 5-(2,5-dimethyl-4-(6-(trifluoromethyl)quinazolin-2-yl)phenyl)-3-methyl-6,7-dihydropyrazolo[1,5-a]pyrazin-4 (5H)-one]
Second: Cc1cc(N2CCn3ncc(C)c3C2=O)c(F)cc1-c1ncc2cc(C(F)(F)F)cc(C)c2n1 [compound 026, 5-(2-fluoro-5-methyl-4-(8-methyl-6-(trifluoromethyl)quinazolin-2-yl)phenyl)-3-methyl-6,7-dihydropyrazolo[1,5-a]pyrazin-4 (5H)-one]
The IC50 of the first is higher: 0.2 to 0.5 µM for the first, less than 0.2 µM for the second. The second is the more potent here.

`Cc1cc(-c2ncc3cc(C(F)(F)F)ccc3n2)ccc1N1CCn2ncc(N[C@@H](C)CO)c2C1=O` [compound 081, (S)-3-((1-hydroxypropan-2-yl)amino)-5-(2-methyl-4-(6-(trifluoromethyl)-quinazolin-2-yl)phenyl)-6,7-dihydropyrazolo[1,5-a]pyrazin-4 (5H)-one] and `Cc1cc(-c2ncc3cc(C(F)(F)F)ccc3n2)ccc1N1CCn2ncc(CO)c2C1=O` [compound 079, 3-(hydroxymethyl)-5-(2-methyl-4-(6-(trifluoromethyl)quinazolin-2-yl)phenyl)-6,7-dihydropyrazolo[1,5-a]pyrazin-4 (5H)-one] cannot be ordered by IC50: less than 0.2 µM for the first, less than 0.2 µM for the second.

First: Cc1cc(-c2ncc3cc(C(F)(F)F)ccc3n2)ccc1N1CCOc2cnn(CCN3CCC(O)CC3)c2C1=O [compound 072, 1-(2-(4-hydroxypiperidin-1-yl)ethyl)-7-(2-methyl-4-(6-(trifluoromethyl)-quinazolin-2-yl)phenyl)-6,7-dihydro-1H-pyrazolo[3,4-f][1,4]oxazepin-8 (5H)-one]
Second: Cc1cc(-c2ncc3cc(C(F)(F)F)ccc3n2)ccc1N1CCOc2cnn(CCN3CCOCC3)c2C1=O [compound 071, 7-(2-methyl-4-(6-(trifluoromethyl)quinazolin-2-yl)phenyl)-1-(2-morpholinoethyl)-6,7-dihydro-1H-pyrazolo[3,4-f][1,4]oxazepin-8 (5H)-one]
The IC50 of the first is higher: 1 to 10 µM for the first, 0.5 to 1 µM for the second.

First: Cc1cc(-c2ncc3cc(C(F)(F)F)ccc3n2)ccc1N1CCOc2cnn(CC(=O)O)c2C1=O [compound 076, 2-(7-(2-methyl-4-(6-(trifluoromethyl)quinazolin-2-yl)phenyl)-8-oxo-5,6,7,8-tetrahydro-1H-pyrazolo[3,4-f][1,4]oxazepin-1-yl)acetic acid]
Second: Cc1cc(-c2ncc3cc(C(F)(F)F)ccc3n2)ccc1N1CCOc2cn(CCO)nc2C1=O [compound 037, 2-(2-hydroxyethyl)-7-(2-methyl-4-(6-(trifluoromethyl)quinazolin-2-yl)phenyl)-6,7-dihydro-2H-pyrazolo[3,4-f][1,4]oxazepin-8 (5H)-one]
The IC50 of the first is higher: 1 to 10 µM for the first, less than 0.2 µM for the second. The second is the more potent here.

First: Cc1cc(-c2ncc3cc(C(F)(F)F)ccc3n2)ccc1N1CCOc2cn(Cc3nnn[nH]3)nc2C1=O [compound 077, 2-((1H-tetrazol-5-yl)methyl)-7-(2-methyl-4-(6-(trifluoromethyl)-quinazolin-2-yl)phenyl)-6,7-dihydro-2H-pyrazolo[3,4-f][1,4]oxazepin-8 (5H)-one]
Second: Cc1cc(-c2ncc3cc(C(F)(F)F)ccc3n2)ccc1N1CCOc2cccnc2C1=O [compound 054, 4-(2-methyl-4-(6-(trifluoromethyl)quinazolin-2-yl)phenyl)-3,4-dihydropyrido[2,3-f][1,4]oxazepin-5 (2H)-one]
The IC50 of the first is higher: 1 to 10 µM for the first, 0.2 to 0.5 µM for the second. The second is the more potent here.

`Cc1cc(-c2ncc3cc(C(F)(F)F)ccc3n2)ccc1N1CCn2nc(CN3CCC(F)(F)CC3)c(C)c2C1=O` [Example 108, 2-((4,4-difluoropiperidin-1-yl)methyl)-3-methyl-5-(2-methyl-4-(6-(trifluoro-methyl)quinazolin-2-yl)phenyl)-6,7-dihydropyrazolo[1,5-a]pyrazin-4 (5H)-one] and `Cc1cc(-c2ncc3cc(C(F)(F)F)ccc3n2)ccc1N1CCn2nc(C(C)N3CCOCC3)c(C)c2C1=O` (stereo not shown) [Example 112, 3-methyl-5-(2-methyl-4-(6-(trifluoromethyl)quinazolin-2-yl)phenyl)-2-(1-morpholinoethyl)-6,7-dihydropyrazolo[1,5-a]pyrazin-4 (5H)-one] cannot be ordered by IC50: less than 0.2 µM for the first, less than 0.2 µM for the second.

`Cc1cc(-c2ncc3nc(C(F)(F)F)ccc3n2)ccc1N1CCOc2cn(C)nc2C1=O` [compound 047, 2-methyl-7-(2-methyl-4-(6-(trifluoromethyl)pyrido[3,2-d]pyrimidin-2-yl)phenyl)-6,7-dihydro-2H-pyrazolo[3,4-f][1,4]oxazepin-8 (5H)-one] and `Cc1cc(-c2ncc3nc(C(F)(F)F)ccc3n2)ccc1N1CCOc2cn[nH]c2C1=O` [compound 038, 7-(2-methyl-4-(6-(trifluoromethyl)pyrido[3,2-d]pyrimidin-2-yl)phenyl)-6,7-dihydro-1H-pyrazolo[3,4-f][1,4]oxazepin-8 (5H)-one] cannot be ordered by IC50: less than 0.2 µM for the first, less than 0.2 µM for the second.

`Cc1cc(-c2ccc3nc(C(F)(F)F)cc(C)c3n2)ccc1N1CCn2ncc(C)c2C1=O` [compound 017, 3-methyl-5-(2-methyl-4-(8-methyl-6-(trifluoromethyl)-1,5-naphthyridin-2-yl)phenyl)-6,7-dihydropyrazolo[1,5-a]pyrazin-4 (5H)-one] and `Cc1cc(N2CCn3ncc(C)c3C2=O)c(F)cc1-c1ccc2nc(C(F)(F)F)ccc2n1` [compound 007, 5-(2-fluoro-5-methyl-4-(6-(trifluoromethyl)-1,5-naphthyridin-2-yl)phenyl)-3-methyl-6,7-dihydropyrazolo[1,5-a]pyrazin-4 (5H)-one] cannot be ordered by IC50: less than 0.2 µM for the first, less than 0.2 µM for the second.

`Cc1cc(-c2ncc3nc(C(F)(F)F)ccc3n2)ccc1N1CCOc2c(CN(C)C)nn(C)c2C1=O` [compound 085, 3-((dimethylamino)methyl)-1-methyl-7-(2-methyl-4-(6-(trifluoromethyl)pyrido-[3,2-d]pyrimidin-2-yl)phenyl)-6,7-dihydro-1H-pyrazolo[3,4-f][1,4]oxazepin-8 (5H)-one] and `Cc1cc(-c2ncc3nc(C(F)(F)F)ccc3n2)ccc1N1CCOc2c(C(C)(C)O)nn(C)c2C1=O` [compound 084, 3-(2-hydroxypropan-2-yl)-1-methyl-7-(2-methyl-4-(6-(trifluoromethyl)pyrido[3,2-d]pyrimidin-2-yl)phenyl)-6,7-dihydro-1H-pyrazolo[3,4-f][1,4]oxazepin-8 (5H)-one] cannot be ordered by IC50: less than 0.2 µM for the first, less than 0.2 µM for the second.

First: Cc1cc(-c2ncc3nc(C(F)(F)F)ccc3n2)ccc1N1CCn2nc(CO)c(C)c2C1=O [compound 088, 2-(hydroxymethyl)-3-methyl-5-(2-methyl-4-(6-(trifluoromethyl)-pyrido-[3,2-d]pyrimidin-2-yl)phenyl)-6,7-dihydropyrazolo[1,5-a]pyrazin-4 (5H)-one]
Second: Cc1cc(-c2ncc3nc(C(F)(F)F)ccc3n2)ccc1N1CCOc2nn[nH]c2C1=O [compound 040, 7-[2-methyl-4-[6-(trifluoromethyl)pyrido[3,2-d]pyrimidin-2-yl]phenyl]-1H,5H,6H,7H,8H-[1,2,3]triazolo[4,5-f][1,4]oxazepin-8-one]
The IC50 of the first is lower: less than 0.2 µM for the first, 1 to 10 µM for the second. The first is the more potent here.

`Cc1cc(-c2ncc3cc(C(F)(F)F)ccc3n2)ccc1N1CCn2nc(C(=O)N3CCOCC3)c(C)c2C1` [compound 062, (3-methyl-5-(2-methyl-4-(6-(trifluoromethyl)quinazolin-2-yl)phenyl)-4,5,6,7-tetrahydropyrazolo[1,5-a]pyrazin-2-yl)(morpholino)methanone] was tested, and the IC50 was less than 0.2 µM.
